Reference: ChEMBL document CHEMBL1146222, “Cyclic depsipeptides, ichthyopeptins A and B, from Microcystis ichthyoblabe” (J Nat Prod, 2007)
≈ marks a conversion by molar mass, not a printed value.

System: Influenza A virus
Assay: Antiviral activity against Influenza A virus (A/WSN/33/London (H1N1)) in MDCK cells after 72 hrs by neutral red dye uptake assy
Format: functional, organism-based

Molecule `NC12CC3CC(CC(C3)C1)C2` [AMANTADINE] has an IC50 of 15 µg/mL (≈ 99.2 µM).
